According to paper PMC9989931, “Membrane‐acting biomimetic peptoids against visceral leishmaniasis” (FEBS Open Bio, 2023):
Values joined by “and” are separate entries in the source; they are usually repeats but may differ in a detail not shown here. Equal entries are not always repeated. “Also recorded” adds a separate entry of the source. Square brackets hold non-standard residues; d marks the D form. Peptide text beside a SMILES is read from it. Nspe(4-Br) = C[C@H](NCC(=O)O)c1ccc(Br)cc1; N(tridecyl)Gly = CCCCCCCCCCCCCNCC(=O)O; Nspe = C[C@H](NCC(=O)O)c1ccccc1; Nlys = NCCCCNCC(=O)O

Columns and labels:
[1] = tested on: Leishmania donovani promastigotes (Bob strain); assay type: cell-based; details: 4 h; for Reduction of promastigote viability: at 3 μM, MTT, vs untreated cells
Description: Promastigotes of bob L. donovani were harvested in the log phase, and parasite inhibition was determined through 3‐(4,5‐dimethylthiazol‐2‐yl)‐2,5‐diphenyl‐tetrazolium bromide (MTT) methods using twofold dilution techniques. Briefly, promastigote density of 2 × 10^6 cells was taken, and different peptoid dilutions were added (0.187–3 μM) in a total volume of 100 μL. Percentage parasite viability was evaluated at 4 h at 25 °C using MTT (Sigma‐Aldrich). Parasite viability rate (%) = [OD of test sample/OD of untreated sample] × 100.
All experiments were carried out in triplicate and repeated at least three times independently (biological replicates), and the figures shown are representative of these experiments. IC50 was calculated using GRAPHPAD PRISM 6.0 software. The data were analyzed using Student's t‐test for comparison of two groups, and data values were expressed as mean ± standard deviation (SD). Significant differences were determined and designated with asterisks as follows: *P < 0.05; **P < 0.01; ***P < 0.001; and ****P < 0.0001.
Fig. 1 Antileishmanial activity of peptoids against Leishmania donovani promastigotes. Early‐logarithmic‐phase promastigotes of L. donovani bob strain were treated with different peptoids at different concentrations (0–3 μM) for 4 h. Negative control was considered 100% of cell viability (untreated) and positive control (Triton X treated). Cellular viability was assessed by MTT assay, and the IC50 values were calculated using GRAPHPAD PRISM 6.0. Error bars represent SD N = 3 and n = 3.

[2] = tested on: Leishmania donovani intracellular amastigotes; assay: Intracellular amastigote clearance in infected RAW 264.7 macrophages (Giemsa staining, microscopy); assay type: cell-based; design: key to Effect on intracellular amastigotes: *: Good; **: Better; ***: Best; details: 10 μM peptoid, infected RAW 264.7 cells; for Effect on intracellular amastigotes by Giemsa staining (number, size, count): vs untreated control, 24 h or 4 h; for Effect on intracellular amastigotes: Giemsa staining, grade
Description: To evaluate the inhibitory effect of different peptoids on intracellular amastigotes, RAW 264.7 cells were infected with logarithmic phase promastigotes. Briefly, RAW 264.7 cells (10^5 cells/well) were seeded in 24‐well plates with round sterile coverslips and allowed to adhere to the coverslip for 24 h at 37 °C at 5% CO2 DMEM media supplemented with 10% FBS. Adherent macrophages were infected with L. donovani promastigotes at 1 : 10 (macrophage: promastigotes) for 6 h. Co‐infected cells were washed with PBS three times and incubated for a further 24 h for infection establishment. After 24 h, media were removed and again washed with FBS‐free DMEM followed by peptoid treatment. Ten μM of different peptoids were added to the co‐infected cells and incubated for 4 h at 37 °C at 5% CO2. After 4 h, peptoid‐treated co‐infected cells were washed with PBS, fixed with 100% methanol, and stained with diluted Giemsa stain (1 : 10) (HiMedia, Mumbai, India). The parasite clearance status of peptoids was determined by counting the number of the parasites using the Leica LAS core microscope system by counting 100 cells per coverslip.
Fig. 2 Giemsa staining of intracellular amastigotes in macrophage 264.7 cells after treatment with different peptoids at 10 μM concentrations. Untreated amastigotes (A), sample treated with TM 1 (B), TM 2 (C), TM 3 (D), TM 4 (E), TM 5 (F), TM 7 (G), TM 9 (H), and TM 10 (I). Red arrow points to the amastigotes form of Leishmania donovani parasite. Scale bar represents […].

RAW 264.7 cells = assay: Cytotoxicity against RAW 264.7 cells (MTT); assay type: cell-based, murine; details: for Host cell viability: 20 µM
Description: The cytotoxicity of different peptoids against RAW 264.7 cells was assessed by the MTT method following a published protocol. Briefly, murine macrophages were seeded in a 96‐well plate using DMEM supplemented with 10% FBS maintained at 37 °C and 5% CO2 for 24 h. Next, different concentrations of peptoids (5–80 μM) were added and incubated for 24 h followed by the addition of MTT for 2 h and solubilization of formazene crystals with DMSO addition. Percentage cell viability was calculated relative to the peptoid untreated sample.
Fig. 6 Percentage of living RAW 264.7 cells after incubation with different concentrations of peptoids. RAW 264.7 macrophage cells were incubated with peptoid for 24 h. […] The working concentration of 10 μM of peptoids caused only 50% or lower cytotoxicity in RAW 264.7 cells. Cell viability was determined by MTT assay, and data based on three experiments are represented by mean ± SD.

SMILES | IC50 [1] [nM] | Reduction of promastigote viability [1] [%] | Effect on intracellular amastigotes by Giemsa staining (number, size, count) [2] | Effect on intracellular amastigotes [2] | Reduction in host cell viability (RAW 264.7 cells; RAW 264.7 cells, 10 μM, 24 h, MTT) | Host cell viability (RAW 264.7 cells)
C[C@@H](c1ccccc1)N(CC(N)=O)C(=O)CN(C(=O)CN(CCCCN)C(=O)CN(C(=O)CN(C(=O)CN(CCCCN)C(=O)CN(C(=O)CN(C(=O)CN(CCCCN)C(=O)CN(C(=O)CN(C(=O)CNCCCCN)[C@@H](C)c1ccccc1)[C@@H](C)c1ccccc1)[C@@H](C)c1ccccc1)[C@@H](C)c1ccccc1)[C@@H](C)c1ccccc1)[C@@H](C)c1ccccc1)[C@@H](C)c1ccccc1 [TM1] (H-[Nlys][Nspe][Nspe][Nlys][Nspe][Nspe][Nlys][Nspe][Nspe][Nlys][Nspe][Nspe]-NH2) | – | ≥ 50 | reduction in number and size of amastigotes; also recorded: reduces the amastigote count | *** | ~ 40% and 40% | –
C[C@@H](c1ccccc1)N(CC(N)=O)C(=O)CN(C(=O)CN(CCCCN)C(=O)CN(C(=O)CN(C(=O)CNCCCCN)[C@@H](C)c1ccccc1)[C@@H](C)c1ccccc1)[C@@H](C)c1ccccc1 [TM7] (H-[Nlys][Nspe][Nspe][Nlys][Nspe][Nspe]-NH2) | 3030 | ≥ 50 | reduction in number and size of amastigotes; also recorded: significantly reduced their count | ** | – | no toxicity
CCCCCCCCCCCCCNCC(=O)N(CCCCN)CC(=O)N(CC(=O)N(CC(=O)N(CCCCN)CC(=O)N(CC(=O)N(CC(N)=O)[C@@H](C)c1ccc(Br)cc1)[C@@H](C)c1ccccc1)[C@@H](C)c1ccc(Br)cc1)[C@@H](C)c1ccccc1 [TM10] (H-[N(tridecyl)Gly][Nlys][Nspe][Nspe(4-Br)][Nlys][Nspe][Nspe(4-Br)]-NH2) | 1540 | – | reduction in number and size of amastigotes; also recorded: significantly reduced their count | *** | – | –

Second part, led by results:

IC50 [1] [nM] | SMILES | Reduction of promastigote viability [1] [%] | Effect on intracellular amastigotes by Giemsa staining (number, size, count) [2] | Effect on intracellular amastigotes [2] | Reduction in host cell viability (RAW 264.7 cells; RAW 264.7 cells, 10 μM, 24 h, MTT) | Host cell viability (RAW 264.7 cells)
1400 | C[C@@H](c1ccc(Br)cc1)N(CC(N)=O)C(=O)CN(C(=O)CN(CCCCN)C(=O)CN(C(=O)CN(C(=O)CNCCCCN)[C@@H](C)c1ccccc1)[C@@H](C)c1ccc(Br)cc1)[C@@H](C)c1ccccc1 [TM2] (H-[Nlys][Nspe][Nspe(4-Br)][Nlys][Nspe][Nspe(4-Br)]-NH2) | ≥ 50 | – | * | – | more than 50%
4600 | C[C@@H](c1ccc(Br)cc1)N(CC(N)=O)C(=O)CN(C(=O)CN(CCCCN)C(=O)CN(C(=O)CN(C(=O)CNCCCCN)[C@@H](C)c1ccccc1)[C@@H](C)c1ccccc1)[C@@H](C)c1ccccc1 [TM3] (H-[Nlys][Nspe][Nspe][Nlys][Nspe][Nspe(4-Br)]-NH2) | – | – | * | – | no toxicity
